Structures can show the parent of a compound that is named as a salt.
Molecular target: hMC1R (Homo sapiens (Human), UniProt Q01726)
Assay: Transactivation test: melanocortin receptors (pCRE-Luc luciferase reporter), hMC1R
Type: cell-based
Details: HEK293 transfected with pCRE-Luc and hMC1R; products tested alone (agonist), 6 h incubation; % activity vs NDP-MSH 10 nM; IA: inactive
Description: Transactivation Test: Melanocortin Receptors
HEK293 lines are transfected with the pCRE-Luc and hMC1R, hMC3R, hMC4R or hMC5R vectors. The cells are cultured at 37° C., 5% CO2, in DMEM medium supplemented with 10% of foetal calf serum.
In the presence of an activator (agonist), the melanocortin receptor will activate the cAMP pathway which, via the CRE-Luc vector, will result in the synthesis of luciferase. After the addition of a lysis buffer containing a luminescent substrate for luciferase, it will be possible to measure the luminescence proportional to the degree of activation or of inhibition of the receptor.
The products are solubilized at 10 mM in DMSO. They are tested in the form of dose-response at a final DMSO concentration of 0.1%. The range comprising 10 points and one zero begins at 10 μM with 4-fold dilutions. For testing agonists, the products are tested alone. For determining the behaviour of antagonists, the products of interest are tested in the presence of 1 nM NDP-MSH (reference agonist). The cells are seeded at a rate of 5000 cells per well (384 well plate) in serum-free DMEM medium, and incubated overnight at 37° C., 5% CO2.
The products and the reference ligand (NDP-MSH) are added the following day, and the plates are again incubated for 6 h at 37° C., 5% CO2. After the addition of lysis buffer containing luciferin, the plates are read on a Top-Count instrument. The results are standardized as % activity using the 100% (cells+NDP-MSH at 10 nM) and 0% (cells alone) controls. An EC50 is calculated for each product using the XLFit software. The results are given in nM.

Chain of hMC1R (Q01726 whole entry): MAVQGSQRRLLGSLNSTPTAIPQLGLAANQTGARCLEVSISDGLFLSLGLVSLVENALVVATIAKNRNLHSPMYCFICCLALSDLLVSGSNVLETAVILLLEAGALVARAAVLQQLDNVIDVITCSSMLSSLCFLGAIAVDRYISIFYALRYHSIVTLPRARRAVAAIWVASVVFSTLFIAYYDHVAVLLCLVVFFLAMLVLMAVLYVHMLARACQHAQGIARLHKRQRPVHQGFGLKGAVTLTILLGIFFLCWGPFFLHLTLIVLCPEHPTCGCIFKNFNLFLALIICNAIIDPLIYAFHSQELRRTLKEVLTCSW

| SMILES | EC50 |
| --- | --- |
| CCCCCC1(c2ccccc2Cl)CN(C(=O)[C@@H](Cc2ccc(OC)cc2)NC(=O)CCc2c[nH]cn2)C1 [Compound 44, N-[(R)-2-[3-(2-chlorophenyl)-3-pentylazetidin-1-yl]-1-(4-methoxybenzyl)-2-oxoethyl]-3-(1H-imidazol-4-yl)propionamide] | 30 nM |
| CCCOC1(c2ccccc2C)CN(C(=O)[C@H](Cc2ccc(OC)cc2)NC(=O)CCc2c[nH]cn2)C1 [Compound 21, N-[(S)-1-(4-methoxybenzyl)-2-oxo-2-(3-propoxy-3-o-tolylazetidin-1-yl)ethyl]-3-(1H-imidazol-4-yl)propionamide] | 4000 nM |
| CCCCCC1(c2ccccc2F)CN(C(=O)[C@@H](Cc2ccc(OC)cc2)NC(=O)CCc2c[nH]cn2)C1 [Compound 43, N-[(R)-2-[3-(2-fluorophenyl)-3-pentylazetidin-1-yl]-1-(4-methoxybenzyl)-2-oxoethyl]-3-(1H-imidazol-4-yl)propionamide] | 30 nM |
| CCCCOC1(c2ccccc2C)CN(C(=O)C(Cc2ccc(OC)cc2O)NC(=O)CCc2cnc[nH]2)C1 (stereo not drawn) [Compound 70, N-[2-(3-Butoxy-3-o-tolylazetidin-1-yl)-1-(2-hydroxy-4-methoxybenzyl)-2-oxoethyl]-3-(3H-imidazol-4-yl)propionamide trifluoroacetate] | 4000 nM |
| CCCCCC1(c2ccccc2)CN(C(=O)[C@@H](Cc2ccc(C(F)(F)F)cc2)NC(=O)CCc2c[nH]cn2)C1 [Compound 51, N-[(R)-2-oxo-2-(3-pentyl-3-phenylazetidin-1-yl)-1-(4-trifluoromethylbenzyl)ethyl]-3-(1H-imidazol-4-yl)propionamide] | 1000 nM |
| CCCC(=O)OC1(c2ccccc2)CN(C(=O)[C@H](Cc2ccc(OC)cc2)NC(=O)[C@H](Cc2c[nH]cn2)NC(=O)c2ccccc2)C1 [Compound 1, 1-[(S)-2-[(S)-2-benzoylamino-3-(1H-imidazol-4-yl)propionylamino]-3-(4-methoxyphenyl)propionyl]-3-phenylazetidin-3-yl ester of butyric acid] | 500 nM |
| CCCCCC1(c2ccc(Cl)c(Cl)c2)CN(C(=O)[C@@H](Cc2ccc(OC)cc2)NC(=O)CCc2c[nH]cn2)C1 [Compound 54, N-[(R)-2-[3-(3,4-dichlorophenyl)-3-pentylazetidin-1-yl]-1-(4-methoxybenzyl)-2-oxoethyl]-3-(1H-imidazol-4-yl)propionamide] | 250 nM |
| COc1ccc(C[C@@H](NC(=O)CCc2c[nH]cn2)C(=O)N2CC(O)(c3ccccc3C)C2)cc1 [Compound 29, N-[(R)-2-(3-hydroxy-3-o-tolylazetidin-1-yl)-1-(4-methoxybenzyl)-2-oxoethyl]-3-(1H-imidazol-4-yl)propionamide] | 1000 nM |
| O=C(CCc1c[nH]cn1)N[C@H](Cc1ccc(Cl)c(Cl)c1)C(=O)N1CC(O)(c2ccccc2)C1 [Compound 12, N-[(R)-1-(3,4-dichlorobenzyl)-2-(3-hydroxy-3-phenylazetidin-1-yl)-2-oxoethyl]-3-(1H-imidazol-4-yl)propionamide] | 8000 nM |
| COc1ccc(C[C@H](NC(=O)CCc2c[nH]cn2)C(=O)N2CC(O)(C3CCCCC3)C2)cc1 [Compound 10, N-[(S)-2-(3-cyclohexyl-3-hydroxyazetidin-1-yl)-1-(4-methoxybenzyl)-2-oxoethyl]-3-(1H-imidazol-4-yl)propionamide] | 8000 nM |
| CCCCOC1(c2ccccc2C)CN(C(=O)[C@@H](Cc2ccc(O)cc2)NC(=O)CCc2cnc[nH]2)C1 [Compound 72, N-[(R)-2-(3-Butoxy-3-o-tolylazetidin-1-yl)-1-(4-hydroxybenzyl)-2-oxoethyl]-3-(3H-imidazol-4-yl)propionamide] | 2000 nM |
| CCCCCC1(c2ccc(F)cc2)CN(C(=O)[C@@H](Cc2ccc(OC)cc2)NC(=O)CCc2c[nH]cn2)C1 [Compound 38, N-[(R)-2-[3-(4-fluorophenyl)-3-pentylazetidin-1-yl]-1-(4-methoxybenzyl)-2-oxoethyl]-3-(1H-imidazol-4-yl)propionamide] | 250 nM |

Source: US9630949B2, “Oxoazetidine derivatives, process for the preparation thereof and use thereof in human medicine and in cosmetics” (GALDERMA RESEARCH & DEVELOPMENT, priority 2008, dated 2017)
